Measurements taken from US9051295B2, “1-substituted indazole derivative” (Dainippon Sumitomo Pharma Co., Ltd., priority 2012, dated 2015).

target: T1, human α7 nAChR (Homo sapiens, UniProt P36544); assay: Evaluation of PAM activity with human α7 nACh receptor stably expressing cells (aequorin luminescence, FDSS7000, ACh EC20); format: cell-based; conditions: statement on Table 8 data
T1 construct: expressed in transfected cells; host or cells: GH4C1 cells (rat pituitary, ATCC CCL-82.2)
Source text: Evaluation of PAM Activity with Human α7 nACh Receptor Stably Expressing Cells
(1) Human α7 nAChR Stably Expressing Cells
Human α7 nAChR stably expressing cells were generated and cultured. In detail, GH4C1 cells derived from rat pituitary (cat#CCL-82.2, ATCC, USA) were used as a host cell. PcDNA3.1Zeo vector containing a nucleotide sequence encoding a protein GenBank BAC81731 and pcDNA3.1 vector containing human α7 nAChR gene (cat#V790-20, invitrogen, Carlsbad, Calif., USA) were transfected to the cells to give aequorins and human α7 nAChR stably expressing cells respectively. The aequorins and human α7 nAChR stably expressing cells were screened with Zeocin (cat#R25001, invitrogen, Carlsbad, Calif., USA) and Geneticin (cat#10131-027, invitrogen, Carlsbad, Calif., USA) respectively.
The cells were cultured in F-10 Nutrient Mixture (Ham) medium (cat#11550-043, invitrogen, Carlsbad, Calif., USA) containing 2.5% fetal bovine serum (cat#2917354, ICN Biomedicals, Inc, USA), 15% inactivated horse serum (cat#26050-088, invitrogen, Carlsbad, Calif., USA), 1 μg/mL Geneticin, and 5 μg/mL Puromycin (cat#14861-84, invitrogen, Carlsbad, Calif., USA), in a Collagen Type 1-coated dish (cat#4030-010, iwaki, Tokyo, Japan). During the culture, the medium was replaced with fresh medium in every 2 to 3 days, and the cells were treated with TrypLE Express (cat#45604-021, invitrogen, Carlsbad, Calif., USA) to collect them in every 7 days. Thus, the cells were subcultured.
7 Days after subculturing, the cells were treated with TrypLE Express to collect them when they were about 80% confluent. The cells were suspended in a reaction medium containing Hanks (cat#14065-056, invitrogen, Carlsbad, Calif., USA)/20 mmol/L Hepes (cat#15630-080, invitrogen, Carlsbad, Calif., USA), Buffer (pH 7.4), F-10 Nutrient Mixture (Ham), and 0.1 mg/mL Geneticin, and the suspension was seeded in a 384-well plate (cat#781090, Greiner, Germany) at 20000 cells/25 μL per well.
On the next day after seeding, Viviren (cat#E649X, Promega, Madison, Wis., USA) was added to the medium so that the final concentration could be 4 μmol/L (15 μL/well). The plates were centrifuged and then placed in the dark for 4 hours at room temperature.
(2) Preparation of the Test Samples
Each of the test compounds was dissolved in DMSO to prepare each test sample at a concentration of 1000-fold the final concentration. To the solution was added Hanks/20 mM HEPES/0.2% BSA (cat#A3803, Sigma, St. Louis, Mo., USA), and the concentration was adjusted to 6-fold the final concentration.
(3) Evaluation of PAM Activity
FDSS7000 (Hamamatsu Photonics) was used to detect the luminescence signal evoked by α7 nAChR stimulation. The cells and a luminescent substrate were put on a plate, and the test sample was added thereto. […] After the addition of ACh, the luminescence signal (the central wavelength: 465 nm) was measured for 138 seconds to calculate RLU (Max-Min). The ratio of the RLU (Max-Min) of the test-compound-containing wells to that of the control wells was defined as PAM activity.

T1 sequence (P36544 23-502): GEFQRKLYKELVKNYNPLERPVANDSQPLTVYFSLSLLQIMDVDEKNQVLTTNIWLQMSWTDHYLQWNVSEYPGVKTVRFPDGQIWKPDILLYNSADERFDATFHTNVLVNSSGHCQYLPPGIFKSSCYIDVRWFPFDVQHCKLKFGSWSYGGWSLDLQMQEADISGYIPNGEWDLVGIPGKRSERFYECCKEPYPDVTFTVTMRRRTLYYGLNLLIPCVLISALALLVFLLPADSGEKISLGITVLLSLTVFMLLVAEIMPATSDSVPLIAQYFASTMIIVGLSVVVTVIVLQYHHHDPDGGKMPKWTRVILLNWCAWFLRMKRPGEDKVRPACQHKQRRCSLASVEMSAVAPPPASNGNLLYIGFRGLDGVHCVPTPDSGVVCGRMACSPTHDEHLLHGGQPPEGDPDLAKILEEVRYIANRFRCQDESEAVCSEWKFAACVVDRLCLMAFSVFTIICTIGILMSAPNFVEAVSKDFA

In the case of `CCc1ccc2c(cnn2[C@H]2CC[C@@H](NC(=O)C3CCCCC3)CC2)c1` [Example 119], the “PAM activity for α7 nAChR (in words)” value is reported as “stronger PAM activity than others”.
With `COCC1CCC(NC(=O)N2CCC(n3ncc4cc(C)ccc43)CC2)CC1` (stereo not shown) [Example 220] the “PAM activity for α7 nAChR (in words)” value was “stronger PAM activity than others”.
`CCc1ccc2c(cnn2C2CCN(C(=O)NC3CCC(F)(F)CC3)CC2)c1` [Example 23] was tested, and the “PAM activity for α7 nAChR (in words)” value was “stronger PAM activity than others”.
In the case of `COc1ccc2c(cnn2C2CCN(C(=O)NC3CCCCC3)CC2)c1` [Example 40], the “PAM activity for α7 nAChR (in words)” value is reported as “stronger PAM activity than others”.
In the case of `Cc1ccc2c(cnn2C2CCN(C(=O)NC3CCCCC3)CC2)c1` [Example 8, N-cyclohexyl-4-(5-methyl-1H-indazol-1-yl)piperidine-1-carboxamide], the “PAM activity for α7 nAChR (in words)” value is reported as “stronger PAM activity than others”.
With `Cc1ccc2c(cnn2C2CCN(C(=O)NC3CCC(F)(F)CC3)CC2)c1` [Example 13, N-(4,4-difluorocyclohexyl)-4-(5-methyl-1H-indazol-1-yl)piperidine-1-carboxamide] the “PAM activity for α7 nAChR (in words)” value was “stronger PAM activity than others”.
`CCc1ccc2c(cnn2[C@H]2CC[C@@H](NC(=O)C3CCC(F)(F)CC3)CC2)c1` [Example 4, N-(cis-4-(5-ethyl-1H-indazol-1-yl)cyclohexyl)-4,4-difluorocyclohexanecarboxamide] was tested, and the “PAM activity for α7 nAChR (in words)” value was “stronger PAM activity than others”.

same assay, conditions: test compound 10 μmol/L; ACh at EC20; ratio of RLU (Max-Min) of test-compound wells to control wells

Compared with `O=C(C1CCOCC1)N1CCC(n2ncc3cc(F)ccc32)CC1` [Example 104], `CCc1ccc2c(cnn2C2CCN(C(=O)C3CCOCC3)CC2)c1` [Example 111] is higher in “α7PAM (%) @ 10 μmol/L” value: 190% for the first, 410% for the second.

Going from `COCc1c(C)ccc2c1cnn2C1CCN(C(=O)NC2CCC(F)(F)CC2)CC1` [Example 213] to `COC(C)c1c(C)ccc2c1cnn2C1CCN(C(=O)NC2CCC(F)(F)CC2)CC1` (stereo not shown) [Example 232], the “α7PAM (%) @ 10 μmol/L” value rises from 800% to 860%.

First: Cc1ccc2c(cnn2C2CCN(C(=O)N[C@H]3CCCCC3(F)F)CC2)c1 [Example 79, (S)—N-(2,2-difluorocyclohexyl)-4-(5-methyl-1H-indazol-1-yl)piperidine-1-carboxamide]
Second: Cc1ccc2c(cnn2C2CCN(C(=O)N[C@H]3CCCC3(F)F)CC2)c1 [Example 80, (S)—N-(2,2-difluorocyclopentyl)-4-(5-methyl-1H-indazol-1-yl)piperidine-1-carboxamide]
The “α7PAM (%) @ 10 μmol/L” value of the first is higher: 1064% for the first, 1033% for the second.

First: CCOc1ccc2c(cnn2C2CCN(C(=O)NC3CCC(F)(F)CC3)CC2)c1 [Example 27, N-(4,4-difluorocyclohexyl)-4-(5-ethoxy-1H-indazol-1-yl)piperidine-1-carboxamide]
Second: CCc1ccc2c(cnn2C2CCN(C(=O)NC3CCC(F)(F)CC3)CC2)c1 [Example 23]
The “α7PAM (%) @ 10 μmol/L” value of the first is lower: 1673% for the first, 6196% for the second.

First: CO[C@H]1CC[C@H](NC(=O)N2CCC(n3ncc4cc(-c5ccc(F)cc5)ccc43)CC2)CC1 [Example 155]
Second: CCc1ccc2c(cnn2C2CCN(C(=O)N[C@H]3CC[C@H](OC)CC3)CC2)c1 [Example 16, 4-(5-ethyl-1H-indazol-1-yl)-N-(trans-4-methoxycyclohexyl)piperidine-1-carboxamide]
The “α7PAM (%) @ 10 μmol/L” value of the first is lower: 210% for the first, 1764% for the second.

Compared with `COCCCc1ccc2c(cnn2C2CCN(C(=O)N[C@H]3CC[C@H](OC)CC3)CC2)c1` [Example 32], `CCCc1ccc2c(cnn2C2CCN(C(=O)NC3CCC(OC)CC3)CC2)c1` (stereo not shown) [Example 76] is lower in “α7PAM (%) @ 10 μmol/L” value: 430% for the first, 420% for the second.

First: CCc1ccc2c(cnn2C2CCN(C(=O)NC3CCOCC3)CC2)c1OC [Example 275, 4-(5-ethyl-4-methoxy-1H-indazol-1-yl)-N-(tetrahydro-2H-pyran-4-yl)piperidine-1-carboxamide]
Second: CCc1ccc2c(cnn2C2CCN(C(=O)N[C@H]3CC[C@H](OC)CC3)CC2)c1OC [Example 255, 4-(5-ethyl-4-methoxy-1H-indazol-1-yl)-N-(trans-4-methoxycyclohexyl)piperidine-1-carboxamide]
The “α7PAM (%) @ 10 μmol/L” value of the first is lower: 1093% for the first, 1096% for the second.

Compared with `CO[C@H]1CCC[C@H](NC(=O)N2CCC(n3ncc4cc(C5CC5)ccc43)CC2)C1` [Example 211, 4-(5-cyclopropyl-1H-indazol-1-yl)-N-[(1S,3S)-3-methoxycyclohexyl]piperidine-1-carboxamide], `Cc1ccc2c(cnn2C2CCN(C(=O)NC3CCCCC3)CC2)c1` [Example 8, N-cyclohexyl-4-(5-methyl-1H-indazol-1-yl)piperidine-1-carboxamide] is higher in “α7PAM (%) @ 10 μmol/L” value: 1034% for the first, 3053% for the second.

First: CCCc1ccc2c(cnn2C2CCN(C(=O)NC3CCOCC3)CC2)c1 [Example 15, 4-(5-propyl-1H-indazol-1-yl)-N-(tetrahydro-2H-pyran-4-yl)piperidine-1-carboxamide]
Second: CCO[C@H]1CC[C@H](NC(=O)N2CCC(n3ncc4cc(C)ccc43)CC2)CC1 [Example 90, N-(trans-4-ethoxycyclohexyl)-4-(5-methyl-1H-indazol-1-yl)piperidine-1-carboxamide]
The “α7PAM (%) @ 10 μmol/L” value of the first is lower: 1025% for the first, 1467% for the second.

Going from `Cc1ccc2c(c1)c(C)nn2C1CCN(C(=O)NC2CCC(F)(F)CC2)CC1` [Example 45, N-(4,4-difluorocyclohexyl)-4-(3,5-dimethyl-1H-indazol-1-yl)piperidine-1-carboxamide] to `Cc1ccc2c(cnn2C2CCN(C(=O)NC3CCC(F)(F)CC3)CC2)c1` [Example 13, N-(4,4-difluorocyclohexyl)-4-(5-methyl-1H-indazol-1-yl)piperidine-1-carboxamide], the “α7PAM (%) @ 10 μmol/L” value rises from 1576% to 3399%.

Going from `COc1c(C(F)(F)F)ccc2c1cnn2C1CCN(C(=O)NC2CCC(OC)CC2)CC1` (stereo not shown) [Example 317] to `CO[C@H]1CC[C@H](NC(=O)N2CCC(n3ncc4c(C)c(C)ccc43)CC2)CC1` [Example 225], the “α7PAM (%) @ 10 μmol/L” value rises from 360% to 480%.

Going from `CCc1ccc2c(cnn2[C@H]2CC[C@@H](NC(=O)NC3CCC(F)(F)CC3)CC2)c1` [Example 5, 1-(4,4-difluorocyclohexyl)-3-(cis-4-(5-ethyl-1H-indazol-1-yl)cyclohexyl)urea] to `CCc1ccc2c(cnn2[C@H]2CC[C@@H](NC(=O)C3CCC(F)(F)CC3)CC2)c1` [Example 4, N-(cis-4-(5-ethyl-1H-indazol-1-yl)cyclohexyl)-4,4-difluorocyclohexanecarboxamide], the “α7PAM (%) @ 10 μmol/L” value rises from 1368% to 2344%.

Going from `O=C(NC1CCC(F)(F)CC1)N1CCC(n2ncc3cc(OC4CC4)ccc32)CC1` [Example 249, 4-[5-(cyclopropoxy)-1H-indazol-1-yl]-N-(4,4-difluorocyclohexyl)piperidine-1-carboxamide] to `CO[C@H]1CC[C@H](NC(=O)N2CCC(n3ncc4cc(OC(F)F)ccc43)CC2)CC1` [Example 291, 4-[5-(difluoromethoxy)-1H-indazol-1-yl]-N-(trans-4-methoxycyclohexyl)piperidine-1-carboxamide], the “α7PAM (%) @ 10 μmol/L” value falls from 1463% to 1433%.

Going from `O=C(NC1CCC(F)(F)CC1)N1CCC(n2ncc3c(OC(F)F)cccc32)CC1` [Example 201] to `CCc1cccc2c1cnn2C1CCN(C(=O)NC2CCC(F)(F)CC2)CC1` [Example 64, N-(4,4-difluorocyclohexyl)-4-(4-ethyl-1H-indazol-1-yl)piperidine-1-carboxamide], the “α7PAM (%) @ 10 μmol/L” value rises from 370% to 1133%.

First: COCc1nn(C2CCN(C(=O)NC3CCCCC3)CC2)c2ccc(C)cc12 [Example 68]
Second: CCOc1cccc2c1cnn2C1CCN(C(=O)N[C@H]2CC[C@@H](OC)CC2)CC1 [Example 184]
The “α7PAM (%) @ 10 μmol/L” value of the first is higher: 430% for the first, 200% for the second.

Compared with `O=C(Nc1ccc(C(F)(F)F)nc1)N1CCC(n2ncc3cc(C4CC4)ccc32)CC1` [Example 187], `Cc1ccc2c(cnn2C2CCN(C(=O)NC3CCC(OCC(F)(F)F)CC3)CC2)c1` (stereo not shown) [Example 83] is higher in “α7PAM (%) @ 10 μmol/L” value: 220% for the first, 420% for the second.

With `COC1CCC(NC(=O)N2CCC(n3ncc4c(Br)cccc43)CC2)CC1` (stereo not shown) [Example 98] the “α7PAM (%) @ 10 μmol/L” value was 89%.
